Patent US20090233999A1, “COMPOSITIONS AND THERAPEUTIC METHODS INVOLVING ISOFLAVONES AND ANALOGUES THEREOF” (NOVOGEN RESEARCH PTY LTD, priority 1999, published 2009)

Experiments:
mast cells = test: UVB psoriasis model: histochemical identification of dermal mast cells; format: in vivo, mouse; details: 20 μM topical; 72 h post-UVB; UVB alone 14.2, unirradiated 9.8
Method: Groups of 3 Skh:hr-1 mice were exposed to 3×MEdD of UVB radiation, with and without topical treatments of 20 μM Cpd. 18 immediately and at 24 and 48 h post-UVB. The mice were euthanased and, and mid-dorsal skin samples were taken before and at 72 h after irradiation for histological fixation. The samples were fixed for 6 h in Histochoice and processed and wax-embedded as described above. Sections of 5 μm were cut for histochemical identification of mast cells, by staining with 0.1% toluidine blue solution in McIlvane buffer, pH 3. Positively stained cells with a diameter of 10 μm or more in the dermal compartment were counted under light microscopy (Olympus UPlanApo, Japan) using a at 20× magnification, in 10 sequential non-overlapping fields for each of 3 mice per treatment group, and the average mast cell number per field was obtained. Statistical significance of the differences between groups was determined using Student's t test. All the experiments were performed at least twice, with triplicate skin samples.

TNFα = test: UVB psoriasis model: cutaneous TNFα by ELISA; format: in vivo, mouse; details: for suppression of UVB-induced TNF-α level: 40 μM topical
Description: Inbred, 6-8 weeks of age female C57/BL6, C3H/HeN and Skh:hr-1 (hairless) mice were fed normal stock rodent rations and tap water ad libitum. One day prior to UVB irradiation, the dorsal hair of C57/BL6 and C3H/HeN mice was removed by clipping. A single UVB tube (Phillips TL-40W/12 RS, Eindhoven, The Netherlands) emitting a spectrum of 280-365 nm with a peak emission at 310 nm, was used as the light source for the experiments. The radiation was filtered through a sheet of 0.125 mm cellulose acetate (Grafix Plastics, OH, USA) to block wavelengths below 290 nm. Irradiance was measured with an IL 1500 radiometer (International Light Inc. Newburyport, Mass.) with a UVB detector (SEE 240/UVB) calibrated to the spectral output, and recorded as 1.71×10-4 W/cm2. Groups of three female C57/BL6 and C3H/HeN mice were exposed unrestrained in their cages to 7.24 kJ/m2 UVB radiation equal to 3× the minimal erythemal dose (MED) in these haired mice (fur clipped), an exposure of approximately 70 min. Control mice were clipped of fur in the same manner but were not exposed to UVB irradiation. Groups of 3 Skh:hr-1 mice received 3.59 kJ/m2 of UVB, which is equal to 3×MED on hairless mouse skin. Temperature under the radiation source was stabilised during the exposures with surrounding curtains and an electric fan.
Cpd. 18 was dissolved as a 40 mM stock solution in DMSO, then diluted in a vehicle of propylene glycol-ethanol-water 1:2:1 to provide solutions of 0, 5, 10, 20 and 40 μM with […]. The vehicle control base lotion contained 0.001% DMSO. An aliquot of 100 μL of lotion was applied to the dorsum of three mice immediately, 1 h and 2 h after UVB irradiation for 24 h time point measurements, or once daily immediately after and for up to the next four days following irradiation, for later time points, and was spread evenly using a micropipette. Control mice were restrained in the same manner but were not exposed to UVB irradiation.
To determine the effect of UVB irradiation on cutaneous TNFα expression, groups of three C57/BL6 and C3H/HeN mice were euthanased before and at several time points up to 72 h following UVB irradiation, with and without topical treatment with 20 μM Cpd. 18, and the mid-dorsal skin was excised. […] Colour development was stopped after 30 min with 50 μL of 1M H2SO4, and quantitated spectrophotometrically at 405 nm. […]

How did the “dermal mast cell number” value (mast cells) turn out when `COc1ccc(C2=Cc3ccc(O)cc3OC2)cc1OC` [Cpd. 18, 7-Hydroxy-3′,4′-dimethoxyisoflav-3-ene] was run?
The value was 10.0 cells per field.

And the “suppression of UVB-induced TNF-α level” value (TNFα; C3H/HeN, 3 h post-UVB)?
Its value is 40%.

What about the “suppression of UVB-induced TNF-α level” value (TNFα; C57/BL6, 3 h post-UVB) of the same molecule?
Its value is 45%.

And the “UVB-elevated TNFα levels” value (TNFα; 5-40 μM, dose-dependent, each mouse strain, 3 h post-UVB)?
The value was “significantly reduced”.

And the “TNFα expression, lotion alone” value (TNFα; without UVB)?
Its value is “no effect”.
